“And” between values parts separate entries of the source, which are not always exact repeats. Equal entries are not always repeated. ± gives the expanded uncertainty stated by the source.
Test: xn = mol fraction of the nth substance listed
Details: Fluid (supercritical or subcritical phases); for mass density: 293.15 K, Vibrating tube method, x1 = 0.97; for speed of sound: 298.13 K, Frequency=5 MHz, Pulse-echo method

O=C=O [carbon dioxide] + CO
Details | mass density [kg/m3]
14700 kPa | 904.75 ± 0.81
14725 kPa | 904.95 ± 0.81
14750 kPa | 905.15 ± 0.81
14775 kPa | 905.36 ± 0.81
14800 kPa | 905.48 ± 0.81
14825 kPa | 905.68 ± 0.81
14850 kPa | 905.88 ± 0.81
14875 kPa | 906.06 ± 0.81
14900 kPa | 906.27 ± 0.81
14925 kPa | 906.44 ± 0.81
14950 kPa | 906.59 ± 0.81
14975 kPa | 906.77 ± 0.81
15000 kPa | 906.96 ± 0.81
15025 kPa | 907.15 ± 0.81
15050 kPa | 907.32 ± 0.81
15075 kPa | 907.46 ± 0.81
15100 kPa | 907.6 ± 0.81
15125 kPa | 907.83 ± 0.81
15150 kPa | 907.99 ± 0.81
15175 kPa | 908.18 ± 0.81
15200 kPa | 908.32 ± 0.81
15225 kPa | 908.49 ± 0.81
15250 kPa | 908.66 ± 0.81
15275 kPa | 908.85 ± 0.81
15300 kPa | 909.03 ± 0.81
15325 kPa | 909.22 ± 0.81
15350 kPa | 909.37 ± 0.81
15375 kPa | 909.52 ± 0.81
15400 kPa | 909.68 ± 0.81
15425 kPa | 909.89 ± 0.81
15450 kPa | 910.03 ± 0.81
15475 kPa | 910.14 ± 0.81
15500 kPa | 910.23 ± 0.81
15525 kPa | 910.31 ± 0.81
15550 kPa | 910.48 ± 0.81
15575 kPa | 910.7 ± 0.81
15600 kPa | 910.88 ± 0.81
15625 kPa | 911.01 ± 0.81
15650 kPa | 911.21 ± 0.81
15675 kPa | 911.37 ± 0.81
15700 kPa | 911.59 ± 0.81
15725 kPa | 911.74 ± 0.81
15750 kPa | 911.86 ± 0.81
15775 kPa | 912.03 ± 0.81
15800 kPa | 912.19 ± 0.81
15825 kPa | 912.36 ± 0.81
15850 kPa | 912.52 ± 0.81
15875 kPa | 912.75 ± 0.81
15900 kPa | 912.9 ± 0.81
15925 kPa | 913.04 ± 0.81
15950 kPa | 913.17 ± 0.81
15975 kPa | 913.37 ± 0.81
16000 kPa | 913.55 ± 0.81
16025 kPa | 913.66 ± 0.81
16050 kPa | 913.83 ± 0.81
16075 kPa | 913.99 ± 0.81
16100 kPa | 914.15 ± 0.81
16125 kPa | 914.31 ± 0.81
16150 kPa | 914.45 ± 0.81
16175 kPa | 914.56 ± 0.81
16200 kPa | 914.73 ± 0.81
16225 kPa | 914.89 ± 0.81
16250 kPa | 915.05 ± 0.81
16275 kPa | 915.22 ± 0.81
16300 kPa | 915.38 ± 0.81
16325 kPa | 915.54 ± 0.81
16350 kPa | 915.71 ± 0.81
16375 kPa | 915.87 ± 0.81
16400 kPa | 916.03 ± 0.81
16425 kPa | 916.2 ± 0.81
16450 kPa | 916.37 ± 0.81
16475 kPa | 916.52 ± 0.81
16500 kPa | 916.75 ± 0.81
16525 kPa | 916.93 ± 0.81
16550 kPa | 917.01 ± 0.81
16575 kPa | 917.25 ± 0.81
16600 kPa | 917.37 ± 0.81
16625 kPa | 917.58 ± 0.81
16650 kPa | 917.7 ± 0.81
16675 kPa | 917.9 ± 0.81
16700 kPa | 918.08 ± 0.81
16725 kPa | 918.24 ± 0.81
16750 kPa | 918.41 ± 0.81
16775 kPa | 918.57 ± 0.81
16800 kPa | 918.73 ± 0.81
16825 kPa | 918.9 ± 0.81
16850 kPa | 919.06 ± 0.81
16875 kPa | 919.22 ± 0.81
16900 kPa | 919.43 ± 0.81
16925 kPa | 919.55 ± 0.81
16950 kPa | 919.71 ± 0.81
16975 kPa | 919.95 ± 0.81
17000 kPa | 920.08 ± 0.81
17025 kPa | 920.29 ± 0.81
17050 kPa | 920.44 ± 0.81
17075 kPa | 920.59 ± 0.81
17100 kPa | 920.73 ± 0.81
17125 kPa | 920.92 ± 0.81
17150 kPa | 921.1 ± 0.81
17175 kPa | 921.27 ± 0.81
17200 kPa | 921.4 ± 0.81
17225 kPa | 921.53 ± 0.81
17250 kPa | 921.7 ± 0.81
17275 kPa | 921.85 ± 0.81
17300 kPa | 922.01 ± 0.81
17325 kPa | 922.18 ± 0.81
17350 kPa | 922.33 ± 0.81
17375 kPa | 922.5 ± 0.81
17400 kPa | 922.71 ± 0.81
17425 kPa | 922.85 ± 0.81
17450 kPa | 922.99 ± 0.81
17475 kPa | 923.17 ± 0.81
17500 kPa | 923.34 ± 0.81
17525 kPa | 923.48 ± 0.81
17550 kPa | 923.64 ± 0.81
17575 kPa | 923.77 ± 0.81
17600 kPa | 923.94 ± 0.81
17625 kPa | 924.11 ± 0.81
17650 kPa | 924.26 ± 0.81
17675 kPa | 924.4 ± 0.81
17700 kPa | 924.55 ± 0.81
17725 kPa | 924.7 ± 0.81
17750 kPa | 924.87 ± 0.81
17775 kPa | 925.03 ± 0.81
17800 kPa | 925.19 ± 0.81
17825 kPa | 925.35 ± 0.81
17850 kPa | 925.49 ± 0.81
17875 kPa | 925.61 ± 0.81
17900 kPa | 925.82 ± 0.81
17925 kPa | 925.93 ± 0.81
17950 kPa | 926.13 ± 0.81
17975 kPa | 926.25 ± 0.81
18000 kPa | 926.42 ± 0.81
18025 kPa | 926.56 ± 0.81
18050 kPa | 926.67 ± 0.81
18075 kPa | 926.86 ± 0.81
18100 kPa | 927.05 ± 0.81
18125 kPa | 927.16 ± 0.81
18150 kPa | 927.35 ± 0.81
18175 kPa | 927.46 ± 0.81
18200 kPa | 927.66 ± 0.81
18225 kPa | 927.75 ± 0.81
18250 kPa | 927.94 ± 0.81
18275 kPa | 928.06 ± 0.81
18300 kPa | 928.22 ± 0.81
18325 kPa | 928.38 ± 0.81
18350 kPa | 928.5 ± 0.81
18375 kPa | 928.68 ± 0.81
18400 kPa | 928.85 ± 0.81
18425 kPa | 928.95 ± 0.81
18450 kPa | 929.11 ± 0.81
18475 kPa | 929.27 ± 0.81
18500 kPa | 929.45 ± 0.81
18525 kPa | 929.53 ± 0.81
18550 kPa | 929.71 ± 0.81
18575 kPa | 929.88 ± 0.81
18600 kPa | 929.97 ± 0.81
18625 kPa | 930.13 ± 0.81
18650 kPa | 930.29 ± 0.81
18675 kPa | 930.46 ± 0.81
18700 kPa | 930.61 ± 0.81
18725 kPa | 930.69 ± 0.81
18750 kPa | 930.86 ± 0.81
18775 kPa | 931.01 ± 0.81
18800 kPa | 931.17 ± 0.81
18825 kPa | 931.25 ± 0.81
18850 kPa | 931.43 ± 0.81
18875 kPa | 931.59 ± 0.81
18900 kPa | 931.74 ± 0.81
18925 kPa | 931.9 ± 0.81
18950 kPa | 931.99 ± 0.81
18975 kPa | 932.14 ± 0.81
19000 kPa | 932.3 ± 0.81
19025 kPa | 932.45 ± 0.81
19050 kPa | 932.6 ± 0.81
19075 kPa | 932.74 ± 0.81
19100 kPa | 932.87 ± 0.81
19125 kPa | 933.01 ± 0.81
19150 kPa | 933.14 ± 0.81
19175 kPa | 933.29 ± 0.81
19200 kPa | 933.42 ± 0.81
19225 kPa | 933.56 ± 0.81
19250 kPa | 933.7 ± 0.81
19275 kPa | 933.83 ± 0.81
19300 kPa | 933.97 ± 0.81
19325 kPa | 934.1 ± 0.81
19350 kPa | 934.24 ± 0.81
19375 kPa | 934.38 ± 0.81
19400 kPa | 934.51 ± 0.81
19425 kPa | 934.64 ± 0.81
19450 kPa | 934.79 ± 0.81
19475 kPa | 934.91 ± 0.81
19500 kPa | 935.12 ± 0.81
19525 kPa | 935.24 ± 0.81
19550 kPa | 935.36 ± 0.81
19575 kPa | 935.49 ± 0.81
19600 kPa | 935.62 ± 0.81
19625 kPa | 935.75 ± 0.81
19650 kPa | 935.88 ± 0.81
19675 kPa | 936 ± 0.81
19700 kPa | 936.18 ± 0.81
19725 kPa | 936.26 ± 0.81
19750 kPa | 936.44 ± 0.81
19775 kPa | 936.57 ± 0.81
19800 kPa | 936.69 ± 0.81
19825 kPa | 936.81 ± 0.81
19850 kPa | 936.93 ± 0.81
19875 kPa | 937.05 ± 0.81
19900 kPa | 937.17 ± 0.81
19925 kPa | 937.36 ± 0.81
19950 kPa | 937.48 ± 0.81
19975 kPa | 937.6 ± 0.81
20000 kPa | 937.71 ± 0.81

Details | speed of sound
10080 kPa, x1 = 0.7534 | 529.7 ± 1 m/s
14970 kPa, x1 = 0.925 | 538.3 ± 1 m/s
14980 kPa, x1 = 0.7534 | 600.9 ± 1 m/s
14980 kPa, x1 = 0.925 | 537.1 ± 1 m/s
14990 kPa, x1 = 0.925 | 536.5 ± 1 m/s and 539.1 ± 1 m/s
15060 kPa, x1 = 0.8502 | 554 ± 0.9 m/s
19950 kPa, x1 = 0.925 | 600.2 ± 1 m/s
19960 kPa, x1 = 0.925 | 602.2 ± 1 m/s
20000 kPa, x1 = 0.8502 | 613.8 ± 1 m/s
20000 kPa, x1 = 0.925 | 599.6 ± 1 m/s and 601.7 ± 1 m/s
20030 kPa, x1 = 0.7534 | 657.7 ± 1 m/s
24940 kPa, x1 = 0.8502 | 663.5 ± 1 m/s
24970 kPa, x1 = 0.925 | 651.7 ± 1 m/s
24990 kPa, x1 = 0.925 | 651.3 ± 1 m/s
25000 kPa, x1 = 0.925 | 652.9 ± 1 m/s and 653 ± 1 m/s
29950 kPa, x1 = 0.925 | 696.6 ± 1 m/s
29980 kPa, x1 = 0.925 | 696.1 ± 1 m/s
29990 kPa, x1 = 0.925 | 696.8 ± 1 m/s
30000 kPa, x1 = 0.8502 | 707.4 ± 1 m/s
30010 kPa, x1 = 0.925 | 695.5 ± 1 m/s
30030 kPa, x1 = 0.7534 | 746.7 ± 1 m/s
34980 kPa, x1 = 0.7534 | 783.5 ± 1.1 m/s
34990 kPa, x1 = 0.925 | 735.2 ± 1 m/s
35000 kPa, x1 = 0.925 | 736.1 ± 1 m/s
35020 kPa, x1 = 0.925 | 734.8 ± 1 m/s
35060 kPa, x1 = 0.8502 | 746.3 ± 1 m/s
39980 kPa, x1 = 0.925 | 771.2 ± 1 m/s
39990 kPa, x1 = 0.925 | 770.5 ± 1 m/s and 770.1 ± 1 m/s
40000 kPa, x1 = 0.925 | 771.3 ± 1 m/s
40030 kPa, x1 = 0.8502 | 780.8 ± 1.1 m/s

Reference: the NIST ThermoML archive (doi:10.1016/j.jct.2016.03.026)
